# Values of other authors as cited in US20050181516A1, “Bioequivalence determination using expression profiling” (priority 2002, published 2005).
# Key:
# [1] = molecular target: macrophilin FKBP12 (Homo sapiens, UniProt P62942); settings: relative to FK506; cited from earlier work
# [2] = tested on: contact dermatitis; settings: topical application and oral route; cited from earlier work
# [3] = tested on: T cells and mast cells; settings: in vitro; cited from earlier work
# Sequence of macrophilin FKBP12 (P62942 whole entry): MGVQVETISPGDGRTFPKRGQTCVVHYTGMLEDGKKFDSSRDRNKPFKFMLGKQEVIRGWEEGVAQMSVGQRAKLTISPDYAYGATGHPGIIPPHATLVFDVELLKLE
compound,measurement,setting,value
"CC[C@@H]1/C=C(\C)C[C@H](C)C[C@H](OC)[C@H]2O[C@@](O)(C(=O)C(=O)N3CCCC[C@H]3C(=O)O[C@H](/C(C)=C/[C@@H]3CC[C@H](Cl)[C@H](OC)C3)[C@H](C)[C@@H](O)CC1=O)[C@H](C)C[C@@H]2OC [ASM981, 33-Epichloro-33-desoxy-ascomycin]","affinity for macrophilin FKBP12, fold lower than FK506",[1],3 fold
same,efficacy in animal models of contact dermatitis,[2],effective
same,IgE promoter activity,[3],decrease
same,T cell activation and proliferation,[3],decrease
same,inflammatory mediators release,[3],impaired
